According to paper PMC11079064, “Discovery of a brain penetrant small molecule antagonist targeting LPA1 receptors to reduce neuroinflammation and promote remyelination in multiple sclerosis” (Scientific Reports, 2024):
pEC50: −log10 of the molar value. Like-named read-outs stand apart in the source and are kept apart here.

Assays:
MOG-EAE mouse model = assay: MOG-EAE mouse model, visual evoked potentials; type: in vivo; settings: day 21
Protocol: To further assess myelin status, we measured conductance velocity in the optic nerve, a heavily myelinated tract that is sensitive to demyelination. To measure conductance, we utilized visual evoked potentials (VEPs), a measure for which clinical translatability makes it an especially salient endpoint[42],[43]. VEPs were measured on day 21. […] In comparison, latency in MOG immunized animals had slowed to 60.9 ms.
VEP recordings were conducted 21–24 days post-MOG induction (for simplification, this will be referred to as a nominal Day 21 VEP throughout this document). To do this, animals were placed in a room with red light conditions and allowed to adapt for 1 h. Animals were anesthetized with an intraperitoneal injection of ketamine/Xyalazine (75/10 mg/kg). Pupils were dilated with 1.0% tropicamide (1 drop per eye) (Akorn Pharmaceuticals, Lake Forest, IL). One minute following application tropicamide, one drop of Genteal (Alcon Laboratories, Fort Worth, TX) was applied to each eye to maintain ocular moisture during anesthesia.
VEPs were conducted using a Celeris system (Diagnosys, Lowell, MA). […] Flash VEPs were recorded from each eye independently and simultaneously. […] VEP waveforms were analyzed using Espion (Diagnosys, Lowell, MA). N1 latency for each eye was determined by averaging N1 from 3 independent VEP traces. Similarly, P1–N1 and N1–P1 amplitudes were determined. […]

rat OPCs = assay: OPC-macrophage Transwell co-culture; type: cell-based; settings: in presence of macrophages, 300 nM
Protocol: Following PDGF withdrawal, we observed a 41% decrease in the number of MBP^+ oligodendrocytes when co-cultured with macrophages.
OPCs were isolated as previously described. Cells were plated on the membrane layer of poly-L-lysine (Millipore Sigma, St. Louis, MO) coated Transwell culture plates (VWR, Radnor, PA) at a seeding density of 1 × 10^6 cells per well. Transwell culture plates have microporous membrane which allows for factors to flow between the top and bottom chamber. This permits us to minimize direct contact between the macrophage and OPCs while allowing for a constant, renewable source unlike conditioned media which can be depleted. […]
Isolation of macrophages. […] Differentiated oligodendrocytes were detected with a rat monoclonal antibody to MBP (Millipore Sigma, St. Louis, MO) and OPCs were detected with a rabbit monoclonal antibody to PDGFRα (Santa Cruz Biotechnology, Dallas, TX). Macrophages were detected with CD68 (Santa Cruz Biotechnology, Dallas, TX). […] Images were acquired using a 20× objective, each well was read in a 5 × 5 matrix. Data were analyzed using GraphPad Prism (La Jolla, CA) and statistical significance was determined by ANOVA.

rat oligodendrocytes = assay: Oligodendrocyte protection assay (TNFα/IFNγ insult); type: cell-based; settings: TNFα and IFNγ insult
Excerpt: TNFα and IFNγ are two cytokines that, while not normally expressed in the CNS, are elevated in MS[29]. These cytokines can be secreted by both macrophages and microglia[30],[31]. Receptors for these cytokines (TNFR1, TNFR2, and IFNGR) are expressed in oligodendrocytes. Of note, TNFR1 and 2 have been found on oligodendrocytes bordering MS lesions[23],[32], [33]. Further, although receptor expression for these cytokines on OPCs is unknown, addition of either of these cytokines impact differentiation in isolated OPC cultures[28],[34]. Cultured rat OPCs were differentiated with T3 for 24 h then treated with both TNFα and IFNγ Upon cytokine addition, we observed significant cell death consistent with previous observations (Fig. 6C, left[22],[35]–[37]).
OPC Assay: OPCs were plated in poly-L-lysine (Millipore Sigma, St. Louis, MO) coated 96-well Viewplates™ (Perkin Elmer, Boston, MA) at a seeding density of […] per well. Cells were maintained in media composed of DMEM (Invitrogen, Carlsbad, CA) supplemented with B27 (Invitrogen, Carlsbad, CA), N2 (Invitrogen, Carlsbad, CA), penicillin–streptomycin (Invitrogen, Carlsbad, CA), N-acetylcysteine (Millipore Sigma, St. Louis, MO), forskolin (Millipore Sigma, St. Louis, MO), and 25 ng/ml PDGF-AA (Peprotech, Cranbury, New Jersey) for 24 h at 37°, 5% CO2. Compounds were diluted 10× at a concentration range of 0.001–3 µM. […]

pEC50 (rat oligodendrocytes; read-out: EC50 of protection of MBP+ oligodendrocytes): 6.90
Compound: COc1ccc(NC(=O)N(c2ccccc2C(C)C)C2CCC(C(=O)O)CC2)c(OC(F)F)n1 (centres unmarked) [PIPE-791]
VEP N1 latency (MOG-EAE mouse model; 0.3 mg/kg): 54.6 ms
VEP N1 latency (MOG-EAE mouse model; 3 mg/kg): 52 ms
increase in differentiation versus vehicle treated cultures (rat OPCs): 2.1 fold
pEC50 (rat oligodendrocytes; data not shown, read-out: EC50 of total cellular viability with Alamar blue): 7.40
